Test results from article PMC3692398 (Biochemical pharmacology, 2013).
Where two headings read alike, the source gives them in different places.

Key:
hNET [1] = biological target: T1, hNET (Homo sapiens, UniProt P23975); experiment: cell-based; format: cell-based
hNET [2] = biological target: T1, hNET; experiment: biochemical; format: binding
hSERT [3] = biological target: T2, hSERT (Homo sapiens, UniProt P31645); experiment: Inhibition of [125I]RTI-55 binding, HEK-hSERT membranes
hSERT [4] = biological target: T2, hSERT; experiment: Inhibition of [3H]5-HT uptake, intact HEK-hSERT cells; format: cell-based
human DA D1 receptor = human DA D1 receptor (Homo sapiens, UniProt P21728); experiment: [3H]SCH23390 binding, LhD1 cells; conditions: test drugs up to the maximal concentration tested (10 µM)
human DA D1 receptor, sequence (P21728 whole entry): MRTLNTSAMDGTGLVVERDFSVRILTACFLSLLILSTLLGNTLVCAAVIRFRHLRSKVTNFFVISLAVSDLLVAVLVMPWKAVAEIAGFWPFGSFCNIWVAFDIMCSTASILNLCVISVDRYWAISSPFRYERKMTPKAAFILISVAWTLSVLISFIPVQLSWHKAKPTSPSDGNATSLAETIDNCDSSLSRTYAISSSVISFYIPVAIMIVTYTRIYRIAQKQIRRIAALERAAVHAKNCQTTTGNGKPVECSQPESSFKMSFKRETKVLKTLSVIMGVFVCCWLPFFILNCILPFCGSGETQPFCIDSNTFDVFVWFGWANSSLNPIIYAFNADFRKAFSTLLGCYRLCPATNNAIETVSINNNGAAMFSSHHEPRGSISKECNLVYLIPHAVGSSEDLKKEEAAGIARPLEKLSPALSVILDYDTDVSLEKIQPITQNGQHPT

human DA D2 receptor = human DA D2 receptor (Homo sapiens, UniProt P14416); format: binding
human DA D2 receptor, sequence (P14416 whole entry): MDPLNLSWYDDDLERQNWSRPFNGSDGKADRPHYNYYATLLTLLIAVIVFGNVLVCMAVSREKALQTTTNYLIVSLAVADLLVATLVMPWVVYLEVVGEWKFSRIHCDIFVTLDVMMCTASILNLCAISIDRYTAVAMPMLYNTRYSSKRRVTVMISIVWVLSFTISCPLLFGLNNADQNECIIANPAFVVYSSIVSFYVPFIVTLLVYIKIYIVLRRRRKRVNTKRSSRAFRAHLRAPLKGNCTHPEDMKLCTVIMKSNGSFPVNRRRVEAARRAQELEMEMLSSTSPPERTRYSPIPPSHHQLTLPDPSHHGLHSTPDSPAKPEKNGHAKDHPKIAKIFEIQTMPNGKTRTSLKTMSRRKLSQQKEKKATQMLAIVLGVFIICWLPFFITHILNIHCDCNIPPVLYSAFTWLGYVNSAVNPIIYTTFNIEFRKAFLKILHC

h5-HT1A receptor [5] = biological target: T3, h5-HT1A receptor (Homo sapiens, UniProt P08908); experiment: Stimulation of [35S]GTPγS binding, HEK-h5-HT1A membranes; format: biochemical
T3 sequence (P08908 1-422): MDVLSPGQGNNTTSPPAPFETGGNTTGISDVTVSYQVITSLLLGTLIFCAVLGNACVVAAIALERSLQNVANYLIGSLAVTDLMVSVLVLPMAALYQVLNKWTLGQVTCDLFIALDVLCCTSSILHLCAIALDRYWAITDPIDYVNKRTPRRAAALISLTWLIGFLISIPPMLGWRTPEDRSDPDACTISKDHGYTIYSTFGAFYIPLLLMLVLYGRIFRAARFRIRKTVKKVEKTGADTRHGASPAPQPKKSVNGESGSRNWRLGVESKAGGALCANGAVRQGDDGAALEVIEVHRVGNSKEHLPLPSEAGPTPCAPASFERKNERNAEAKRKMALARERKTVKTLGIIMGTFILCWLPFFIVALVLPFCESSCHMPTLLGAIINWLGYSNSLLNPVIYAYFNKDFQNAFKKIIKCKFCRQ

h5-HT2C receptor [6] = biological target: T4, h5-HT2C receptor (Homo sapiens, UniProt P28335); experiment: biochemical; format: binding
T4 sequence (P28335 33-458): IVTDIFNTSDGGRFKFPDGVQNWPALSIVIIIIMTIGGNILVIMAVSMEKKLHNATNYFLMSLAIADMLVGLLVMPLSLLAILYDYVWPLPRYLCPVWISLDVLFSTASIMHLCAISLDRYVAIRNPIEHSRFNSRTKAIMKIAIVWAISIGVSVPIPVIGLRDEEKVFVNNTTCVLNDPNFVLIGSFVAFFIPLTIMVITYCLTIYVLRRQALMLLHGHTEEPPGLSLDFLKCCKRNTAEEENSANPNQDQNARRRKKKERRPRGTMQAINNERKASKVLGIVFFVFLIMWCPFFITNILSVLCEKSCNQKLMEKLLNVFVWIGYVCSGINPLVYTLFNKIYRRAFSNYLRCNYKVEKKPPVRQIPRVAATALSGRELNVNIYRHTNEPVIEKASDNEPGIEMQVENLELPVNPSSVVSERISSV

h5-HT1A receptor [7] = biological target: T3, h5-HT1A receptor; experiment: [3H]8-OH-DPAT binding, HEK-h5-HT1A
hVMAT2 [8] = biological target: T5, hVMAT2 (Homo sapiens, UniProt Q05940); experiment: Inhibition of [3H]DHTB binding, HEK-hVMAT2 membranes
T5 sequence (Q05940 whole entry, the tested form may be a part): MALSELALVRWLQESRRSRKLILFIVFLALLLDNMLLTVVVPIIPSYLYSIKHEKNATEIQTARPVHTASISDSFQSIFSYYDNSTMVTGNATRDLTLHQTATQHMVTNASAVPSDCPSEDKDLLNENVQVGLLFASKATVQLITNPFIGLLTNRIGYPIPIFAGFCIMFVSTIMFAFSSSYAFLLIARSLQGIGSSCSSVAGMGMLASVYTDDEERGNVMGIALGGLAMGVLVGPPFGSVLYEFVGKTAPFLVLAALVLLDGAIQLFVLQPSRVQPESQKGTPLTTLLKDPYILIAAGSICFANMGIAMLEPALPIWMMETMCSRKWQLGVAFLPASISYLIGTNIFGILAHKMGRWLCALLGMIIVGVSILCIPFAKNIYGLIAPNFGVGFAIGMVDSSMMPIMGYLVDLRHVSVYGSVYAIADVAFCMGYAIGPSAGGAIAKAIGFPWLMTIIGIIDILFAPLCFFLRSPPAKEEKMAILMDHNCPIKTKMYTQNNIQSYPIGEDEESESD

hDAT [9] = biological target: T6, hDAT (Homo sapiens, UniProt Q01959); experiment: Superfusion release of preloaded [3H]DA from HEK-hDAT cells; format: cell-based
T6 sequence (Q01959 whole entry, the tested form may be a part): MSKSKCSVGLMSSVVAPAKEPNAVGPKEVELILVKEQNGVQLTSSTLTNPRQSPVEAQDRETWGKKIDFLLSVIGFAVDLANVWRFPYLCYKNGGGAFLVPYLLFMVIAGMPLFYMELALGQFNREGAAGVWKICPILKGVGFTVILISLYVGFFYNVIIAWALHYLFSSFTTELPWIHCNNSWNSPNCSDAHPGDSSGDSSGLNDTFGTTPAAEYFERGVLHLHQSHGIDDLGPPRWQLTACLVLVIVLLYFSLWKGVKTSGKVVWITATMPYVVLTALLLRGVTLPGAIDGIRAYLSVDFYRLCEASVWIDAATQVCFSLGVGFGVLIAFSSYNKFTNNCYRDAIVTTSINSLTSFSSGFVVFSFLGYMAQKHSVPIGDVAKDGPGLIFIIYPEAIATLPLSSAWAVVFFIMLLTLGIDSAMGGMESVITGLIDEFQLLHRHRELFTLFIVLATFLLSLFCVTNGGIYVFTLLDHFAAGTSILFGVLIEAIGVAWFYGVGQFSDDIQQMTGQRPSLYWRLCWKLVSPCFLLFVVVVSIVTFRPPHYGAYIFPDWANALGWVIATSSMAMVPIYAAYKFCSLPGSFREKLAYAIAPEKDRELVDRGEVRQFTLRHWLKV

hVMAT2 [10] = biological target: T5, hVMAT2; experiment: Inhibition of [3H]5-HT uptake, HEK-hVMAT2 membrane preparation; format: biochemical
[11] = blood from heart, periphery, and femoral veins; postmortem cases; ref [32];[33];[34]; cited from earlier work
h5-HT2A receptor [12] = biological target: T7, h5-HT2A receptor (Homo sapiens, UniProt P28223); experiment: Inhibition of 5-HT-stimulated IP-1 formation; format: cell-based; conditions: 100 nM 5-HT; for h5-HT2A Inhibition of 5-HT-stimulated IP-1 formation % maximum inhibition ± sem: normalized to maximal inhibition by ketanserin (10 µM)
T7 sequence (P28223 whole entry): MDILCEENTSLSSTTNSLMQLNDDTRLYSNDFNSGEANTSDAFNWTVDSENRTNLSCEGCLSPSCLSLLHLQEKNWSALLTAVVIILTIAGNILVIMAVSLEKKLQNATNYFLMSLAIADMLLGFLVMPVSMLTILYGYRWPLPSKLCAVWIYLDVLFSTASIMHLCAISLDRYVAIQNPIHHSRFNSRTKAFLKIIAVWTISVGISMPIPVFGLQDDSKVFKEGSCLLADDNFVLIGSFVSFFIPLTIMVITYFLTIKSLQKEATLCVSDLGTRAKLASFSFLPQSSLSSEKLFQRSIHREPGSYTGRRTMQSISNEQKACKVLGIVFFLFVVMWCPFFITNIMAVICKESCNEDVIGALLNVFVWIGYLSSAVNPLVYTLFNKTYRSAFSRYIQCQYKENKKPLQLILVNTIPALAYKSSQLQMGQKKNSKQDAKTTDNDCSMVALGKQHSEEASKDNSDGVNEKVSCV

h5-HT2C receptor [13] = biological target: T4, h5-HT2C receptor; experiment: Inhibition of 5-HT-stimulated IP-1 formation; format: cell-based; conditions: for h5-HT2C Inhibition of 5-HT-stimulated IP-1 formation % maximum inhibition ± sem: 100 nM 5-HT, normalized to maximal inhibition by SB242084 (1 µM)
hSERT [14] = biological target: T2, hSERT; experiment: Superfusion release of preloaded [3H]5-HT from HEK-hSERT cells; format: cell-based
hDAT [15] = biological target: T6, hDAT; experiment: Inhibition of [125I]RTI-55 binding, HEK-hDAT membranes
hNET [16] = biological target: T1, hNET; experiment: Superfusion release of preloaded [3H]NE from HEK-hNET cells; format: cell-based; conditions: for % maximum release ± sem, hNET [3H]NE: relative to maximal AUC induced by METH (0.3 or 1 µM)
hVMAT2 [17] = biological target: T5, hVMAT2; experiment: Superfusion release of preloaded [3H]NE from HEK-hVMAT2 cells; format: cell-based
hSigma1 receptor = hSigma1 receptor (Homo sapiens, UniProt Q99720); experiment: [3H]; format: binding
hSigma1 receptor, sequence (Q99720 whole entry): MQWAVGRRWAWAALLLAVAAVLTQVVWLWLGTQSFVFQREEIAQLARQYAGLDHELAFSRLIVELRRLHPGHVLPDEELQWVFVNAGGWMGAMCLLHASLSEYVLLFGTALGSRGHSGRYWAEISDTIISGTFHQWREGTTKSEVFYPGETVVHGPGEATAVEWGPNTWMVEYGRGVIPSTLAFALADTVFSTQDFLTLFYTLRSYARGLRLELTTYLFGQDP

hDAT [18] = biological target: T6, hDAT; experiment: Inhibition of [3H]DA uptake, intact HEK-hDAT cells; format: cell-based
h5-HT2A receptor [19] = biological target: T7, h5-HT2A receptor; experiment: [125I]DOI binding, HEK-h5-HT2A; conditions: read-out: Inhibition of radioligand binding Ki ± sem, h5-HT2A [125I]DOI
[20] = concentrations ranging from 1 nM to 100 µM

T1 sequence (P23975 whole entry): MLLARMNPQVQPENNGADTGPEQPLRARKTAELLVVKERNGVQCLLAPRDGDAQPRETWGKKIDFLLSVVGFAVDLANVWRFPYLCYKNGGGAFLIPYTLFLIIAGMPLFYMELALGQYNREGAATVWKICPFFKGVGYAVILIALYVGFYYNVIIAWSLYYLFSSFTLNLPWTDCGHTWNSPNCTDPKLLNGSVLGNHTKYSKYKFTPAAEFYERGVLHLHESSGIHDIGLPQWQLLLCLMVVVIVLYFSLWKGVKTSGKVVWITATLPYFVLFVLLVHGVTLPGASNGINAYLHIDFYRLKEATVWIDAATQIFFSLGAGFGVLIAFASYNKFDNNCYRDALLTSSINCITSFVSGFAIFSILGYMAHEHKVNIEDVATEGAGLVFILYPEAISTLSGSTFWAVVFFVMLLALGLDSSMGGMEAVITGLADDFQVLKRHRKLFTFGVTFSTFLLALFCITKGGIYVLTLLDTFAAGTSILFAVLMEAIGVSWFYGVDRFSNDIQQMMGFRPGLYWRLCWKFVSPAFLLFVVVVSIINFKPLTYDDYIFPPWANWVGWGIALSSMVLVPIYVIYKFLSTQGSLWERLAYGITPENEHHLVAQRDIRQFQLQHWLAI
T2 sequence (P31645 whole entry): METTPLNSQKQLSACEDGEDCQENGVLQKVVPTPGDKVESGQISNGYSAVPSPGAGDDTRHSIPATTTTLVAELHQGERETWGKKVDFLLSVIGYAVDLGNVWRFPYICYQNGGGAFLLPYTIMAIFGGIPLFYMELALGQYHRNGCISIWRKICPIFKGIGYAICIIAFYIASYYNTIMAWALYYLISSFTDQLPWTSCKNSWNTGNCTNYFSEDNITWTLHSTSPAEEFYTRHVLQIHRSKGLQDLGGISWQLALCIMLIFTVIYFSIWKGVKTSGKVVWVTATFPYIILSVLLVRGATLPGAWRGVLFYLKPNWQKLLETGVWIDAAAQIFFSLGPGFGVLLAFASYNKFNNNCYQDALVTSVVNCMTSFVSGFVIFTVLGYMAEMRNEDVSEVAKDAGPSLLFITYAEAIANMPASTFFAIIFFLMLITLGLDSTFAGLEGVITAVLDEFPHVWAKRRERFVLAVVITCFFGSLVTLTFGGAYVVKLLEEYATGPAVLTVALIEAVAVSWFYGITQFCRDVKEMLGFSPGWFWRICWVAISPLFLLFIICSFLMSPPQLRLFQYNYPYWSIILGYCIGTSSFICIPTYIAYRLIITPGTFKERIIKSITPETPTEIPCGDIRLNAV

SMILES: OC1(c2ccc(Cl)cc2)c2ccccc2C2=NCCN21 (stereo not drawn) [Mazindol, reference compound]
- IC50 (hNET [1]): 0.00185 ± 0.00049 µM
- Ki (hNET [2]): 0.0054 ± 0.0016 µM
- Ki (hSERT [3]): 0.026 ± 0.012 µM
- IC50 (hSERT [4]): 0.0307 ± 0.0055 µM

SMILES: CN1CCc2cc(Cl)c(O)cc2[C@@H](c2ccccc2)C1 [SCH23390]
- affinity for the [3H]SCH23390 binding site, DA D1 receptor (human DA D1 receptor): high affinity

SMILES: CC(C)(C)[C@]1(O)CCN2C[C@H]3c4ccccc4CCc4cccc(c43)[C@@H]2C1 [butaclamol]
- affinity for the [3H]YM-09151-2 binding site, DA D2 receptor (human DA D2 receptor): subnanomolar

SMILES: Oc1cc2c(cc1O)C(c1ccccc1)CNCC2 (stereo not drawn) [SKF38393]
- affinity for the [3H]SCH23390 binding site, DA D1 receptor (human DA D1 receptor): high affinity

SMILES: CNC(C)C(=O)c1ccc(C)cc1 (stereo not drawn) [Mephedrone, 4-methyl-N-methylcathinone]
- EC50 (h5-HT1A receptor [5]): 126 ± 29 µM
- Emax (h5-HT1A receptor [5]; read-out: h5-HT1A Stimulation of [35S]GTPγS binding % maximum stimulation ± sem): 44%
- IC50 (hNET [1]): 0.0536 ± 0.0087 µM
- Ki (h5-HT2C receptor [6]): 9.1 ± 2.1 µM
- Ki (h5-HT1A receptor [7]): > 91 µM
- Ki (hVMAT2 [8]): > 1000 µM
- % maximum release ± sem, hDAT [3H]DA (hDAT [9]): 68 ± 11%
- EC50 (hDAT [9]): 1.19 ± 0.34 µM
- time of peak/maximal [3H]DA release after addition of drug (hDAT [9]; 4-FMC 10 µM to 300 µM, mephedrone 30 µM, methylone 100 µM): 8 min
- IC50 (hVMAT2 [10]): 116 ± 8.8 µM
- postmortem blood concentration [11]: 0.06 to 3.3 mg/L
- postmortem blood concentration (molar) [11]: 0.25 to 14 µM
- Ki (hNET [2]): 11.8 ± 4 µM
- Ki (hSERT [3]): 21 ± 4.8 µM
- h5-HT2A Inhibition of 5-HT-stimulated IP-1 formation % maximum inhibition ± sem (h5-HT2A receptor [12]): 98.7 ± 1.3%
- IC50 (h5-HT2C receptor [13]): > 440 µM
- h5-HT2C Inhibition of 5-HT-stimulated IP-1 formation % maximum inhibition ± sem (h5-HT2C receptor [13]): 66.3 ± 8.4%
- % maximum release ± sem, hSERT [3H]5-HT (hSERT [14]): 53 ± 13%
- EC50 (hSERT [14]): 11.9 ± 4.9 µM
- time of peak [3H]5-HT release after addition of drug (hSERT [14]): about 6 min
- IC50 (hSERT [4]): 0.51 ± 0.15 µM
- Ki (hDAT [15]): 4.8 ± 0.75 µM
- EC50 (hNET [16]): 0.41 ± 0.13 µM
- time of peak [3H]NE release after addition of drug (hNET [16]): 8 to 16 min
- % maximum release ± sem, hNET [3H]NE (hNET [16]): 152 ± 32%
- EC50 (hVMAT2 [17]): 66 ± 23 µM
- Release of [3H]NE % maximum release ± sem or range, hVMAT2 (hVMAT2 [17]): 33.1 ± 1.9%
- Ki (hSigma1 receptor; Inhibition of [3H]pentazocine binding Ki ± sem, hSigma1): 7.8 ± 2 µM
- IC50 (hDAT [18]): 0.098 ± 0.027 µM

SMILES: CCCC(C(=O)c1ccc2c(c1)OCO2)N1CCCC1 (stereo not drawn) [MDPV, 3,4-methylenedioxypyrovalerone]
- h5-HT1A Stimulation of [35S]GTPγS binding % maximum stimulation ± sem (h5-HT1A receptor [5]; normalized to the maximal stimulation by 5-HT): 69.0 ± 6.7%
- EC50 (h5-HT1A receptor [5]; read-out: h5-HT1A Stimulation of [35S]GTPγS binding EC50 ± sem): 60.8 ± 8.4 µM
- ratio of binding Ki to uptake IC50, hNET (hNET [1]; [125I]RTI-55 Ki / [3H]NE uptake IC50): less than six
- IC50 (hNET [1]; read-out: Inhibition of [3H]neurotransmitter uptake IC50 ± sem, hNET [3H]NE, 20 nM [3H]NE, intact cells): 0.0188 ± 0.0021 µM
- Ki (h5-HT2C receptor [6]; read-out: Inhibition of radioligand binding Ki ± sem, h5-HT2C [125I]DOI): 107 ± 30 µM
- Ki (h5-HT1A receptor [7]; read-out: Inhibition of radioligand binding Ki ± sem, h5-HT1A [3H]8OH-DPAT): 14.8 ± 3.8 µM
- Ki (h5-HT2A receptor [19]): 207 ± 29 µM
- Ki (hVMAT2 [8]; read-out: Inhibition of [3H]DHTB binding Ki ± sem, hVMAT2): 990 ± 270 µM
- % maximum release ± sem, hDAT [3H]DA (hDAT [9]): 4.8 ± 5.3%
- releasing efficacy, hDAT [3H]DA (hDAT [9]; [20]): minimal releasing efficacy
- EC50 (hDAT [9]; read-out: Drug-induced release of [3H]neurotransmitter EC50 ± sem, hDAT [3H]DA, superfusion, AUC): > 100 µM
- IC50 (hVMAT2 [10]; read-out: Inhibition of [3H]5-HT uptake IC50 ± sem, hVMAT2, 40 nM [3H]5-HT, 2 mM MgATP): > 100 µM
- postmortem blood concentration [11]: 0.06 to 3.3 mg/L
- postmortem blood concentration (molar) [11]: 0.25 to 14 µM
- Ki (hNET [2]; read-out: Inhibition of [125I]RTI-55 binding Ki ± sem, hNET, HEK-hNET membranes): 0.107 ± 0.034 µM
- h5-HT2A Inhibition of 5-HT-stimulated IP-1 formation % maximum inhibition ± sem (h5-HT2A receptor [12]): 67.7 ± 5.4%
- IC50 (h5-HT2A receptor [12]; read-out: h5-HT2A Inhibition of 5-HT-stimulated IP-1 formation IC50 ± sem): 270 ± 86 µM
- h5-HT2C Inhibition of 5-HT-stimulated IP-1 formation % maximum inhibition ± sem (h5-HT2C receptor [13]): 24.5 ± 8.4%
- releasing efficacy, hSERT [3H]5-HT (hSERT [14]; [20]): minimal releasing efficacy
- EC50 (hSERT [14]; read-out: Drug-induced release of [3H]neurotransmitter EC50 ± sem, hSERT [3H]5-HT, superfusion, AUC): > 100 µM
- % maximum release ± sem, hSERT [3H]5-HT (hSERT [14]; relative to maximal AUC induced by PCA (10 µM)): 6.9 ± 2.1%
- ratio of binding Ki to uptake IC50, hSERT (hSERT [4]; [125I]RTI-55 Ki / [3H]5-HT uptake IC50): less than six
- IC50 (hSERT [4]; read-out: Inhibition of [3H]neurotransmitter uptake IC50 ± sem, hSERT [3H]5-HT, 20 nM [3H]5-HT, intact cells): 1.38 µM
- Ki (hDAT [15]; read-out: Inhibition of [125I]RTI-55 binding Ki ± sem, hDAT, HEK-hDAT membranes): 0.0194 ± 0.0032 µM
- releasing efficacy, hNET [3H]NE (hNET [16]; concentrations ranging from 10 nM to 100 µM): minimal releasing efficacy
- EC50 (hNET [16]; read-out: Drug-induced release of [3H]neurotransmitter EC50 ± sem, hNET [3H]NE, superfusion, AUC): > 100 µM
- % maximum release ± sem, hNET [3H]NE (hNET [16]): 18 ± 15%
- Release of [3H]NE % maximum release ± sem or range, hVMAT2 (hVMAT2 [17]): 35.8 ± 9.6%
- EC50 (hVMAT2 [17]; read-out: Drug-induced release of [3H]NE EC50 ± sem, hVMAT2, superfusion): 148 ± 84 µM
- Ki (hSigma1 receptor; read-out: Inhibition of [3H]pentazocine binding Ki ± sem, hSigma1): 4.4 ± 1.7 µM
- ratio of binding Ki to uptake IC50, hDAT (hDAT [18]; [125I]RTI-55 Ki / [3H]DA uptake IC50): less than six
- fold less potent at other target proteins than at biogenic amine transporters (hDAT [18]; other target proteins vs biogenic amine transporters): 60–350 fold
- IC50 (hDAT [18]; read-out: Inhibition of [3H]neurotransmitter uptake IC50 ± sem, hDAT [3H]DA, 20 nM [3H]DA, intact cells): 0.0126 ± 0.0024 µM
